Data taken from patent US20180344680A1, “COMPOSITIONS AND METHODS FOR TREATMENT, AMELIORATION, AND PREVENTION OF DIABETES-RELATED SKIN ULCERS” (THE ARIZONA BOARD OF REGENTS ON BEHALF OF THE UNIVERSITY OF …, priority 2015, published 2018).

Assays:
Assay type in all cases: cell-based, human
[1] = tested on: HaCaT cells; assay: In vitro wounding assay (PDMS barrier) of keratinocyte migration; conditions: HG HaCaT cells; 5 μmol/L SF or 20 μmol/L CA; up to 72 h
Method: (§1) Human immortalized keratinocytes HaCaT were obtained from the Arizona Cancer Center (see, e.g., Boukamp P, et al., J Cell Biol 106:761-771, 1988). Cells were grown in Dulbecco's modified Eagle's medium (DMEM) containing low glucose (LG, 5.5 mmol/L) and 10% fetal bovine serum (FBS) in an incubator at 37° C. with 5% CO2. For the experiments, the cells were starved in serum-free LG DMEM for 24 h, then either maintained in LG DMEM or switched to high glucose (HG, 25 mmol/L) DMEM for 2 days (see, e.g., Zheng H, et al., Diabetes 60:3055-3066, 2011; Lan C C, et al., Br J Dermatol 159:1103-1115, 2008). For the treatments, the cells were dosed with 5 μmol/L SF or 20 μmol/L CA.
siRNA transfections. HaCaT cells were transfected with either a non-specific, control small interfering RNA (Con-siRNA, #1027281, Qiagen, Valencia, Calif.) or an NRF2-specific siRNA (#S100657937) using the HiPerfect transfection reagent (Qiagen) according to the manufacturer's instructions. Briefly, cells were maintained in LG or HG DMEM for 2 days and then transfected with either control or NRF2 siRNA for migration, proliferation, and apoptosis experiments. For the ROS detection, cells were maintained in LG DMEM and transfected with either control or NRF2 siRNA; 24 h later, the cells were switched to HG DMEM and treated as indicated.
In vitro wounding assay. […]

[2] = tested on: Ki67; assay: Ki67 immunofluorescence in HaCaT cells; conditions: HG HaCaT cells; 5 μmol/L SF or 20 μmol/L CA
Method: as §1
(§2) siRNA transfections. […]
(§3) Reactive oxygen species (ROS) measurement, cell proliferation and apoptosis. ROS were measured in HaCaT cells using DCF. […] Then, 48 h later, the cells were switched into fresh medium containing 10 μg/mL DCF, incubated 30 min, and fluorescence intensity was measured by flow cytometry. The rate of cell proliferation was measured by two methods (see, e.g., Ren D, et al., Proc Natl Acad Sci USA 108:1433-1438, 2011): 1) detection of Ki67 using indirect immunofluorescence as described previously (see, e.g., Lau A, et al., Mol Cell Biol 30:3275-3285, 2010); and 2) using the xCELLigence system (Roche). […]

[3] = tested on: HaCaT cells; assay: ROS measurement (DCF/flow cytometry) in HaCaT cells; conditions: HG HaCaT cells; 5 μmol/L SF or 20 μmol/L CA every 24 h, 48 h
Method: Human immortalized keratinocytes HaCaT were obtained from the Arizona Cancer Center (see, […], et al., J Cell Biol 106:761-771, 1988). Cells were grown in Dulbecco's modified Eagle's medium (DMEM) containing low glucose (LG, 5.5 mmol/L) and 10% fetal bovine serum (FBS) in an incubator at 37° C. with 5% CO2. For the experiments, the cells were starved in serum-free LG DMEM for 24 h, then either maintained in LG DMEM or switched to high glucose (HG, 25 mmol/L) DMEM for 2 days (see, e.g., Zheng H, et al., Diabetes 60:3055-3066, 2011; Lan C C, et al., Br J Dermatol 159:1103-1115, 2008). For the treatments, the cells were dosed with 5 μmol/L SF or 20 μmol/L CA. siRNA transfections. […] ROS were measured in HaCaT cells using DCF. […] Then, 48 h later, the cells were switched into fresh medium containing 10 μg/mL DCF, incubated 30 min, and fluorescence intensity was measured by flow cytometry. The rate of cell proliferation was measured by two methods (see, […], et al., Proc Natl Acad Sci USA 108:1433-1438, 2011): 1) detection of Ki67 using indirect immunofluorescence as described previously (see, e.g., Lau A, et al., Mol Cell Biol 30:3275-3285, 2010); and 2) using the xCELLigence system (Roche). For this, 8000 HaCaT cells/well were seeded in LG or HG media, with or without an NRF2 activator, and cell growth was monitored for 72 h. […]

[4] = tested on: HaCaT cells; assay: Cell growth (xCELLigence) of HaCaT cells; conditions: 5 μmol/L SF or 20 μmol/L CA, up to 72 h
Method: as §1, §2, §3

| SMILES | in vitro wound closure (cell migration) [1] | Ki67 expression [2] | ROS levels [3] | inhibition of cell proliferation by HG (cell growth) [4] |
| --- | --- | --- | --- | --- |
| O=CC=Cc1ccccc1 [CA, Cinnamaldehyde] | significantly accelerated wound closure in HG cells | could restore some of the Ki67 expression | reduced ROS levels significantly | partly counteracted |
| C[S@@+]([O-])CCCCN=C=S [SF, L-sulforaphane] | significantly accelerated wound closure in HG cells | could restore some of the Ki67 expression | reduced ROS levels significantly | partly counteracted |
